Experimental data: patent US20210323950A1, “HERBICIDALLY ACTIVE BICYCLIC BENZOYLPYRAZOLES” (Bayer Aktiengesellschaft, priority 2018, published 2021)

Key:
Format in all cases: in vivo
[1] = system: Stellaria media (STEME); assay: Post-emergence herbicidal action against STEME; conditions: 20 g/ha, post-emergence at one-leaf stage, rated visually after about 3 weeks vs untreated controls
Experimental: (§1) STEME: Stellaria media 2. Post-Emergence Herbicidal Action and Crop Plant Compatibility Seeds of monocotyledonous and dicotyledonous weeds and crop plants are placed in sandy loam in plastic or organic planting pots, covered with soil and cultivated in a greenhouse under controlled growth conditions. 2 to 3 weeks after sowing, the test plants are treated at the one-leaf stage. The compounds of the invention, formulated in the form of wettable powders (WP) or as emulsion concentrates (EC), are then sprayed onto the green parts of the plants as aqueous suspension or emulsion with addition of 0.5% additive at a water application rate of […] (converted). After the test plants had been kept in the greenhouse under optimum growth conditions for about 3 weeks, the activity of the preparations is rated visually in comparison to untreated controls. The tables below show the herbicidal activity of numerous compounds according to the invention against important harmful plants. For example, 100% activity=the plants have died, 0% activity=like control plants.

[2] = system: Stellaria media (STEME); assay: Pre-emergence herbicidal action against STEME; conditions: 80 g/ha, scored visually after about 3 weeks vs untreated controls
Text: (§2) STEME: Stellaria media 1. Pre-Emergence Herbicidal Action and Crop Plant Compatibility Seeds of monocotyledonous and dicotyledonous weed plants and crop plants are placed in plastic or organic planting pots and covered with soil. The compounds of the invention, formulated in the form of wettable powders (WP) or as emulsion concentrates (EC), are then applied onto the surface of the covering soil as aqueous suspension or emulsion with addition of 0.5% additive at a water application rate of […] (converted). After the treatment, the pots are placed in a greenhouse and kept under good growth conditions for the trial plants. After about 3 weeks, the effect of the preparations is scored visually in comparison with untreated controls as percentages. The tables below show the herbicidal activity of numerous compounds according to the invention against important harmful plants. For example, 100% activity=the plants have died, 0% activity=like control plants.

[3] = system: Amaranthus retroflexus (AMARE); assay: Post-emergence herbicidal action against AMARE; conditions: 20 g/ha, post-emergence at one-leaf stage, rated visually after about 3 weeks vs untreated controls
Experimental: as §1, with “AMARE: Amaranthus retroflexus” for “STEME: Stellaria media”

[4] = system: Amaranthus retroflexus (AMARE); assay: Pre-emergence herbicidal action against AMARE; conditions: 80 g/ha, scored visually after about 3 weeks vs untreated controls
Text: as §2, with “AMARE: Amaranthus retroflexus” for “STEME: Stellaria media”

[5] = system: Abutilon theophrasti (ABUTH); assay: Pre-emergence herbicidal action against ABUTH; conditions: 80 g/ha, scored visually after about 3 weeks vs untreated controls
Text: as §2, with “ABUTH: Abutilon theophrasti” for “STEME: Stellaria media”

[6] = system: Setaria viridis (SETVI); assay: Pre-emergence herbicidal action against SETVI; conditions: 80 g/ha, scored visually after about 3 weeks vs untreated controls
Text: as §2, with “SETVI: Setaria viridis” for “STEME: Stellaria media”

[7] = system: Setaria viridis (SETVI); assay: Post-emergence herbicidal action against SETVI; conditions: 20 g/ha, post-emergence at one-leaf stage, rated visually after about 3 weeks vs untreated controls
Experimental: as §1, with “SETVI: Setaria viridis” for “STEME: Stellaria media”

[8] = system: Viola tricolor (VIOTR); assay: Pre-emergence herbicidal action against VIOTR; conditions: 80 g/ha, scored visually after about 3 weeks vs untreated controls
Text: as §2, with “VIOTR: Viola tricolor” for “STEME: Stellaria media”

[9] = system: Echinochloa crus-galli (ECHCG); assay: Post-emergence herbicidal action against ECHCG; conditions: 20 g/ha, post-emergence at one-leaf stage, rated visually after about 3 weeks vs untreated controls
Experimental: as §1, with “ECHCG: Echinochloa crus-galli” for “STEME: Stellaria media”

[10] = system: Echinochloa crus-galli (ECHCG); assay: Pre-emergence herbicidal action against ECHCG; conditions: 80 g/ha, scored visually after about 3 weeks vs untreated controls
Text: as §2, with “ECHCG: Echinochloa crus-galli” for “STEME: Stellaria media”

Structure (SMILES)	Post-emergence action against STEME [1] [%]	Pre-emergence action against STEME [2] [%]	Post-emergence action against AMARE [3] [%]	Pre-emergence action against AMARE [4] [%]	Pre-emergence action against ABUTH [5] [%]	Pre-emergence action against SETVI [6] [%]	Post-emergence action against SETVI [7] [%]	Pre-emergence action against VIOTR [8] [%]	Post-emergence action against ECHCG [9] [%]	Pre-emergence action against ECHCG [10] [%]
Cc1nn(C)c(O)c1C(=O)c1ccc(C(F)(F)F)c2c1OCS2 [Example 1-23]	80	100	100	80	100	100				
Cn1ncc(C(=O)c2ccc(C(F)(F)F)c3c2SCS3)c1O [Example 1-58]	80	90	90	80			80	100		
Cn1ncc(C(=O)c2ccc(C(F)(F)F)c3c2SCCS3)c1O [Example 1-60]	80	90	90	100				100		
CCn1ncc(C(=O)c2ccc(C(F)(F)F)c3c2SCCS3)c1O [Example 1-65]		100	80	100		90	100	100	80	80
Cc1nn(C)c(O)c1C(=O)c1ccc(C(F)(F)F)c2c1SCCS2 [Example 1-70]	80	100	90	100				90		
CCn1ncc(C(=O)c2ccc(C(F)(F)F)c3c2SCS3(=O)=O)c1O [Example 1-89]	80	100	90	100	90					
Cc1nn(C)c(O)c1C(=O)c1ccc(C(F)(F)F)c2c1SCS2(=O)=O [Example 1-93]		90	90	100					80	
Cn1nc(C2CC2)c(C(=O)c2ccc(C(F)(F)F)c3c2OCS3)c1O [Example 1-112]	80	90	100	100				90	80	
Cn1ncc(C(=O)c2ccc(C(F)(F)C(F)(F)F)c3c2OCS3(=O)=O)c1O [Example 1-130]	90	100	100	100						
CCn1ncc(C(=O)c2ccc(C(F)(F)C(F)(F)F)c3c2OCS3)c1O [Example 1-131]		90		100	100	100	80	100	80	
